Test results: PubChem BioAssay AID1963835 (Molecular Pharmacology Branch, DTP, NCI, 2024)

System: 699152-130-R-J1-PDC complex spheroid viability
Test: Anticancer human tumor 699152-130-R-J1-PDC patient-derived pancreatic carcinoma cell line growth inhibition [POLQ]
Settings: for IC50: curve of first compound; for viability, T/C: stronger effect = lower value
Procedure: Multicellular complex tumor spheroid response to Polymerase (POL) inhibitors (novobiocin, ART-558, RP6685) in combination with a variety of drugs and investigational agents in selected tumor cell lines
The POL inhibitors (novobiocin, ART-558, and RP6685) were evaluated both individually and in combination with standard of care and investigational anticancer small molecules within a complex spheroid model of solid tumors. . Complex spheroids include a stromal component modeled by human endothelial cells (HUVEC) and fibroblasts modeled by human mesenchymal stem cells (MSCs). The concentration ranges selected for each drug and investigational agent were based upon clinically achievable concentrations if the clinical Cmax of the agent was known.
Compounds. The drugs and investigational agents: novobiocin (NSC847541), ART-558 (NSC835418), RP-6685 (NSC848927), peposertib (NSC802822), ceralasertib (NSC780249), elimusertib (NSC800525), camonsertib (NSC841442), AZD-1390 (NSC803789), olaparib (NSC753686), talazoparib (NSC767125), rucaparib (NSC756644), sotorasib (NSC818433), MRTX-1133 (NSC836407), SN-38 (NSC673596), topotecan (NSC609699), epotoside (NSC141540), doxorubicin (NSC123127), gemcitabine (NSC613327), 5-fluorouracil (NSC19893), paclitaxel (NSC125973), vemurafenib (NSC761431), MSA-2 (NSC828583), SN-011 (NSC837082), adavosertib (NSC754352), prexasertib (NSC758257), carboplatin (NSC241240) and oxaliplatin (NSC266046), were obtained from the National Cancer Institute (NCI) Developmental Therapeutics Program Chemical Repository (21). The FDA-approved anticancer drug set is available from the Developmental Therapeutics Program at https://dtp.cancer.gov/organization/dscb/obtaining/. […] The stock solutions were prepared in dimethyl sulfoxide (DMSO, Sigma-Aldrich, St. Louis, MO, cat. D2650), except for the platinum compounds which were prepared in saline (Quality Biological, Gaithersburg, MD, cat. 114-055-101), at 800-fold the tested concentration and stored at -70 degrees C prior to their use. All drugs and investigational agents were tested over a range starting from a high concentration at or near the clinical Cmax and decreasing in half-log increments. If the clinical Cmax for an agent had not been determined, the highest concentration tested was 10 microM, except for SN-38, which was tested at a high concentration of 1 microM.
Cell Culture. All cells were maintained in an incubator at 37 degrees C and 5% CO2 with 95% humidity. The PDC lines were cultured according to standard operating procedures established by the NCI PDMR (https://pdmr.cancer.gov). Table 3 of the manuscript, lists the cell lines along with the number of the three cell types plated to form the mct-spheroids and media for tumor cell growth. After thawing, all PDC lines, except 997537-175-T-J1-PDC and 415267-285-R-J2-PDC, were cultured in Matrigel-coated flasks prepared with a working solution of 1X Ham's F-12 nutrient mix, without supplementation (Thermo Fisher Scientific, cat. 11765054), 100 U/mL penicillin-streptomycin (Thermo Fisher Scientific, cat. 15140122), and 2.5% Matrigel (Corning Inc., Corning, NY, cat. 354248) for the first three passages. The two PDC lines 997537-175-T-J1-PDC and 415267-285-R-J2-PDC were cultured on uncoated flasks. The 857933-349-R-J2-PDC line was cultured in 6C/Colon 1B media containing advanced DMEM/F-12 (Thermo Fisher Scientific, cat. 12634028), 10 mM HEPES (Thermo Fisher Scientific, cat. 15630080), 1X GlutaMAX supplement (Thermo Fisher Scientific, cat. 35050061), 0.1 mg/mL primocin (InvivoGen, San Diego, CA, cat. ant-pm-2), 10% defined fetal bovine serum, heat inactivated (HyClone Laboratories Inc., Logan, UT, cat. SH30070.03HI), 50% L-WRN conditioned media (ATCC, cat. CRL-3276), 1.25 mM N-Acetyl-L-cysteine (Sigma-Aldrich, cat. A9165), 10 mM nicotinamide (Sigma-Aldrich, cat. N0636), 1X B-27 supplement (Thermo Fisher Scientific, cat. 17504044), 1X N-2 supplement (Thermo Fisher Scientific, cat. […]

[1] = second compound 0.0316 µM, first compound 0.00316 µM
[2] = second compound 0.0316 µM, first compound 0.01 µM
[3] = second compound 0.0316 µM, first compound 0.0316 µM
[4] = second compound 0.0316 µM, first compound 0.1 µM
[5] = second compound 0.1 µM, first compound 0.00316 µM
[6] = second compound 0.1 µM, first compound 0.01 µM
[7] = second compound 0.1 µM, first compound 0.0316 µM
[8] = second compound 0.1 µM, first compound 0.1 µM
[9] = second compound 0.316 µM, first compound 0.00316 µM
[10] = second compound 0.316 µM, first compound 0.01 µM
[11] = second compound 0.316 µM, first compound 0.0316 µM
[12] = second compound 0.316 µM, first compound 0.1 µM
[13] = second compound 1 µM, first compound 0.00316 µM
[14] = second compound 1 µM, first compound 0.01 µM
[15] = second compound 1 µM, first compound 0.0316 µM
[16] = second compound 1 µM, first compound 0.1 µM
[17] = second compound 3.16 µM, first compound 0.00316 µM
[18] = second compound 3.16 µM, first compound 0.01 µM
[19] = second compound 3.16 µM, first compound 0.0316 µM
[20] = second compound 3.16 µM, first compound 0.1 µM
[21] = second compound 10 µM, first compound 0.00316 µM
[22] = second compound 10 µM, first compound 0.01 µM
[23] = second compound 10 µM, first compound 0.0316 µM
[24] = second compound 10 µM, first compound 0.1 µM
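Note: spheroids exposed to agents for 7 days before viability reading.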
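Throughout, for viability, T/C: percent of DMSO vehicle control viability so 100% = vehicle and 0% = no viable signal.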

Question: Which IC50 (second compound 0.0316 µM) does the source give for `C=CCn1c(=O)c2cnc(Nc3ccc(N4CCN(C)CC4)cc3)nc2n1-c1cccc(C(C)(C)O)n1` + COC1C(OC(N)=O)C(O)C(Oc2ccc3c(O)c(NC(=O)c4ccc(O)c(CC=C(C)C)c4)c(=O)oc3c2C)OC1(C)C here?
Answer: The IC50 was > 1000 nM.

Question: What about the IC50 (second compound 0.1 µM) of the same compound?
Answer: Its IC50 is > 1000 nM.

Question: What about the IC50 (second compound 0.316 µM) of the same compound?
Answer: Its IC50 is > 1000 nM.

Question: What about the IC50 (second compound 1 µM) of the same compound?
Answer: Its IC50 is > 1000 nM.

Question: And the IC50 (second compound 3.16 µM)?
Answer: The IC50 was > 1000 nM.

Question: And the IC50 (second compound 10 µM)?
Answer: The IC50 was > 1000 nM.

Question: And the viability, T/C [1]?
Answer: Its viability, T/C is 90.2%.

Question: And the viability, T/C [2]?
Answer: Its viability, T/C is 98.2%.

Question: What about the viability, T/C [3] of the same compound?
Answer: Its viability, T/C is 99.4%.

Question: What about the viability, T/C [4] of the same compound?
Answer: Its viability, T/C is 90.2%.

Question: What about the viability, T/C (second compound 0.0316 µM, first compound 0.316 µM) of the same compound?
Answer: The viability, T/C was 94.6%.

Question: And the viability, T/C (second compound 0.0316 µM, first compound 1 µM)?
Answer: Its viability, T/C is 77.4%.

Question: What about the viability, T/C [5] of the same compound?
Answer: The viability, T/C was 102%.

Question: And the viability, T/C [6]?
Answer: The viability, T/C was 102%.

Question: And the viability, T/C [7]?
Answer: Its viability, T/C is 109%.

Question: What about the viability, T/C [8] of the same compound?
Answer: The viability, T/C was 95%.

Question: And the viability, T/C (second compound 0.1 µM, first compound 0.316 µM)?
Answer: Its viability, T/C is 98.7%.

Question: What about the viability, T/C (second compound 0.1 µM, first compound 1 µM) of the same compound?
Answer: Its viability, T/C is 75%.

Question: What about the viability, T/C [9] of the same compound?
Answer: Its viability, T/C is 97.7%.

Question: And the viability, T/C [10]?
Answer: The viability, T/C was 95.1%.

Question: And the viability, T/C [11]?
Answer: Its viability, T/C is 94.8%.

Question: What about the viability, T/C [12] of the same compound?
Answer: The viability, T/C was 104%.

Question: And the viability, T/C (second compound 0.316 µM, first compound 0.316 µM)?
Answer: Its viability, T/C is 104%.

Question: What about the viability, T/C (second compound 0.316 µM, first compound 1 µM) of the same compound?
Answer: The viability, T/C was 70.7%.

Question: And the viability, T/C [13]?
Answer: Its viability, T/C is 108%.

Question: What about the viability, T/C [14] of the same compound?
Answer: The viability, T/C was 93.9%.

Question: And the viability, T/C [15]?
Answer: Its viability, T/C is 92.1%.

Question: What about the viability, T/C [16] of the same compound?
Answer: The viability, T/C was 99.5%.

Question: And the viability, T/C (second compound 1 µM, first compound 0.316 µM)?
Answer: Its viability, T/C is 90%.

Question: And the viability, T/C (second compound 1 µM, first compound 1 µM)?
Answer: The viability, T/C was 74%.

Question: What about the viability, T/C [17] of the same compound?
Answer: Its viability, T/C is 107%.

Question: What about the viability, T/C [18] of the same compound?
Answer: Its viability, T/C is 92.9%.

Question: And the viability, T/C [19]?
Answer: The viability, T/C was 105%.

Question: What about the viability, T/C [20] of the same compound?
Answer: Its viability, T/C is 96.6%.

Question: What about the viability, T/C (second compound 3.16 µM, first compound 0.316 µM) of the same compound?
Answer: The viability, T/C was 96.4%.

Question: And the viability, T/C (second compound 3.16 µM, first compound 1 µM)?
Answer: Its viability, T/C is 76.5%.

Question: And the viability, T/C [21]?
Answer: Its viability, T/C is 99.1%.

Question: What about the viability, T/C [22] of the same compound?
Answer: Its viability, T/C is 101%.

Question: What about the viability, T/C [23] of the same compound?
Answer: The viability, T/C was 96.3%.

Question: And the viability, T/C [24]?
Answer: Its viability, T/C is 98.7%.

Question: And the viability, T/C (second compound 10 µM, first compound 0.316 µM)?
Answer: The viability, T/C was 95%.

Question: And the viability, T/C (second compound 10 µM, first compound 1 µM)?
Answer: Its viability, T/C is 68%.

Question: What does the source list for `CC[C@@]1(O)C(=O)OCc2c1cc1n(c2=O)Cc2cc3c(CN(C)C)c(O)ccc3nc2-1` + COC1C(OC(N)=O)C(O)C(Oc2ccc3c(O)c(NC(=O)c4ccc(O)c(CC=C(C)C)c4)c(=O)oc3c2C)OC1(C)C?
Answer: IC50 (second compound 0.0316 µM): > 100 nM; IC50 (second compound 0.1 µM): > 100 nM; IC50 (second compound 0.316 µM): > 100 nM; IC50 (second compound 1 µM): 95 nM; IC50 (second compound 3.16 µM): > 100 nM; IC50 (second compound 10 µM): > 100 nM; viability, T/C (second compound 0.0316 µM, first compound 0.000316 µM): 116%; viability, T/C (second compound 0.0316 µM, first compound 0.001 µM): 101%; viability, T/C [1]: 99.3%; viability, T/C [2]: 93.1%; viability, T/C [3]: 79.6%; viability, T/C [4]: 48.4%; viability, T/C (second compound 0.1 µM, first compound 0.000316 µM): 111%; viability, T/C (second compound 0.1 µM, first compound 0.001 µM): 99.6%; viability, T/C [5]: 90.4%; viability, T/C [6]: 93.2%; viability, T/C [7]: 69%; viability, T/C [8]: 60.2%; viability, T/C (second compound 0.316 µM, first compound 0.000316 µM): 112%; viability, T/C (second compound 0.316 µM, first compound 0.001 µM): 94.3%; viability, T/C [9]: 84.9%; viability, T/C [10]: 94%; viability, T/C [11]: 77.9%; viability, T/C [12]: 61.6%; viability, T/C (second compound 1 µM, first compound 0.000316 µM): 97.5%; viability, T/C (second compound 1 µM, first compound 0.001 µM): 92.8%; viability, T/C [13]: 99%; viability, T/C [14]: 92.2%; viability, T/C [15]: 83.2%; viability, T/C [16]: 48.3%; viability, T/C (second compound 3.16 µM, first compound 0.000316 µM): 92.5%; viability, T/C (second compound 3.16 µM, first compound 0.001 µM): 106%; viability, T/C [17]: 83%; viability, T/C [18]: 96.4%; viability, T/C [19]: 80%; viability, T/C [20]: 58%; viability, T/C (second compound 10 µM, first compound 0.000316 µM): 103%; viability, T/C (second compound 10 µM, first compound 0.001 µM): 89.4%; viability, T/C [21]: 98.8%; viability, T/C [22]: 95.4%; viability, T/C [23]: 69.7%; viability, T/C [24]: 60.9%
